Consider 1 substance from patent US12653776B2, “Methods of treatment of cancer by continuous infusion of coenzyme Q10” (priority 2013, dated 2026).

A short description of the series: First-in-human Phase 1 study (CTL0510), 4-hour IV infusion 3 times weekly: safety. The following applies: in vivo. The method, then:
The first-in-human Phase 1 study with coenzyme Q10 nanosuspension (40 mg/ml) was conducted in 50 patients with advanced solid tumors. The objectives were to assess the safety, maximum tolerated dose, PK and PD of coenzyme Q10, specifically a 4% coenzyme Q10 nanosuspension formulation (as described in WO 2011/112900, the entire contents of which are expressly incorporated herein by reference), administered as a 4-hour IV infusion 3 times weekly in 28-day cycles. Nine dose levels were explored ranting from 5.62 to 139 mg/kg. Plasma concentration profiles and PK parameters were determined from blood samples collected pre-dose and at intervals to 48 hours post-dose.

As to Vitamin K [reference compound], the “INR after Vitamin K administration” value is “all INRs decreased to grade 1 or resolved”.
